What follows are molecules tested against XIAP BIR3 (N-His-Tb-BIR3(241-356, XIAP)) (Homo sapiens (Human), UniProt P98170). Details: 130 nM N-His-Tb-BIR3(241-356, XIAP), 1.4 nM fluoresceinated modified SMAC peptide, 60 minutes room temperature; read-out: XIAP BIR3 FPA IC50.
Sequence of XIAP BIR3 (N-His-Tb-BIR3(241-356, XIAP)) (P98170 241-356): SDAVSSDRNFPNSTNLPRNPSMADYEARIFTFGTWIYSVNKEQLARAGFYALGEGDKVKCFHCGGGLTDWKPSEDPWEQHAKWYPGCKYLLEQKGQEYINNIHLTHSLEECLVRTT
Type: binding
With `CN[C@@H](C)C(=O)N[C@H](C(=O)N1C[C@@H](NC(=O)c2ccc(CN(C(=O)[C@@H]3Cc4ccccc4CN3C(=O)[C@@H](NC(=O)[C@H](C)NC)C(C)(C)C)[C@H](C)C(c3ccccc3)c3ccccc3)cc2)C[C@H]1C(=O)N[C@@H]1CCCc2ccccc21)C(C)(C)C` [Example 21, (S)-2-((S)-3,3-Dimethyl-2-((S)-2-(methylamino)propanamido)butanoyl)-N-(4-(((3S,5S)-1-((S)-3,3-dimethyl-2-((S)-2-(methylamino)propanamido)butanoyl)-5-(((R)-1,2,3,4-tetra-hydronaphthalen-1-yl)carbamoyl)pyrrolidin-3-yl)carbamoyl)benzyl)-N-((R)-1,1-diphenylpropan-2-yl)-1,2,3,4-tetrahydro-isoquinoline-3-carboxamide] the IC50 was 290 nM. `CN[C@@H](C)C(=O)N[C@H](C(=O)N1C[C@@H](NC(=O)c2ccc(CN(C(=O)[C@@H]3Cc4ccccc4CN3C(=O)[C@@H](NC(=O)[C@H](C)NC)C(C)(C)C)[C@H](C)c3ccccc3)cc2)C[C@H]1C(=O)N[C@@H]1CCCc2ccccc21)C(C)(C)C` [Example 23, (S)-2-((S)-3,3-Dimethyl-2-((S)-2-(methylamino)propanamido)butanoyl)-N-(4-(((3S,5S)-1-((S)-3,3-dimethyl-2-((S)-2-(methylamino)propanamido)butanoyl)-5-(((R)-1,2,3,4-tetra-hydronaphthalen-1-yl)carbamoyl)pyrrolidin-3-yl)carbamoyl)benzyl)-N-((R)-1-phenylethyl)-1,2,3,4-tetra-hydroisoquinoline-3-carboxamide] gave an IC50 of 120 nM. With `CN[C@@H](C)C(=O)N[C@H](C(=O)N1C[C@@H](NC(=O)c2ccc(CN(C(=O)[C@@H]3Cc4ccccc4CN3C(=O)[C@@H](NC(=O)[C@H](C)NC)C(C)(C)C)[C@H](C)c3ccccc3OC)cc2)C[C@H]1C(=O)N[C@@H]1CCCc2ccccc21)C(C)(C)C` [Example 24, (S)-2-((S)-3,3-Dimethyl-2-((S)-2-(methylamino)propanamido)butanoyl)-N-(4-(((3S,5S)-1-((S)-3,3-dimethyl-2-((S)-2-(methylamino)propanamido)butanoyl)-5-(((R)-1,2,3,4-tetrahydro-naphthalen-1-yl)carbamoyl)pyrrolidin-3-yl)carbamoyl)benzyl)-N-((R)-1-(2-methoxyphenyl)ethyl)-1,2,3,4-tetrahydro-isoquinoline-3-carboxamide] the IC50 was 130 nM. `CN[C@@H](C)C(=O)N[C@H](C(=O)N1C[C@@H](NC(=O)c2ccc(CN(C(=O)[C@@H]3Cc4ccccc4CN3C(=O)[C@@H](NC(=O)[C@H](C)NC)C(C)(C)C)[C@H](C)Cc3ccccc3F)cc2)C[C@H]1C(=O)N[C@@H]1CCCc2ccccc21)C(C)(C)C` [Example 25, (S)-2-((S)-3,3-Dimethyl-2-((S)-2-(methylamino)propanamido)butanoyl)-N-(4-(((3S,5S)-1-((S)-3,3-dimethyl-2-((S)-2-(methylamino)propanamido)butanoyl)-5-(((R)-1,2,3,4-tetrahydro-naphthalen-1-yl)carbamoyl)pyrrolidin-3-yl)carbamoyl)benzyl)-N-((R)-1-(2-fluorophenyl)propan-2-yl)-1,2,3,4-tetrahydro-isoquinoline-3-carboxamide] showed an IC50 of 60 nM. `CN[C@@H](C)C(=O)N[C@H](C(=O)N1CC(NC(=O)c2ccc(CN(C(=O)[C@@H]3Cc4ccccc4CN3C(=O)[C@@H](NC(=O)[C@H](C)NC)C(C)(C)C)C(C)c3ccccc3Cl)cc2)C[C@H]1C(=O)NC1CCCc2ccccc21)C(C)(C)C` (stereo partly drawn) [Example 26, (3S)-N-(1-(2-Chlorophenyl)ethyl)-2-((S)-3,3-dimethyl-2-((S)-2-(methylamino)propanamido)butanoyl)-N-(4-(((3S,5S)-1-((S)-3,3-dimethyl-2-((S)-2-(methylamino)propanamido)butanoyl)-5-(((R)-1,2,3,4-tetrahydro-naphthalen-1-yl)carbamoyl)pyrrolidin-3-yl)carbamoyl)benzyl)-1,2,3,4-tetra-hydroisoquinoline-3-carboxamide] was tested, and the IC50 was 190 nM. Work on `CN[C@@H](C)C(=O)N[C@H](C(=O)N1CCc2ccccc2[C@H]1C(=O)N(Cc1ccc(C(=O)N[C@H]2C[C@@H](C(=O)N[C@@H]3CCCc4ccccc43)N(C(=O)[C@@H](NC(=O)[C@H](C)NC)C(C)(C)C)C2)cc1)[C@H](C)Cc1ccccc1F)C(C)(C)C` [Example 27, (S)-2-((S)-3,3-Dimethyl-2-((S)-2-(methylamino)propanamido)butanoyl)-N-(4-(((3S,5S)-1-((S)-3,3-dimethyl-2-((S)-2-(methylamino)propanamido)butanoyl)-5-(((R)-1,2,3,4-tetrahydro-naphthalen-1-yl)carbamoyl)pyrrolidin-3-yl)carbamoyl)benzyl)-N-((R)-1-(2-fluorophenyl)propan-2-yl)-1,2,3,4-tetrahydro-isoquinoline-1-carboxamide] yielded an IC50 of 90 nM. With `CN[C@@H](C)C(=O)N[C@H](C(=O)N1C[C@@H](NC(=O)c2ccc(CN(C(=O)[C@@H]3Cc4ccccc4CN3C(=O)[C@@H](NC(=O)[C@H](C)NC)C(C)(C)C)[C@H](C)c3ccccc3C)cc2)C[C@H]1C(=O)N[C@@H]1CCCc2ccccc21)C(C)(C)C` [Example 28, (S)-2-((S)-3,3-Dimethyl-2-((S)-2-(methylamino)propanamido)butanoyl)-N-(4-(((3S,5S)-1-((S)-3,3-dimethyl-2-((S)-2-(methylamino)propanamido)butanoyl)-5-(((R)-1,2,3,4-tetra-hydronaphthalen-1-yl)carbamoyl)pyrrolidin-3-yl)carbamoyl)benzyl)-N-((R)-1-(o-tolyl)ethyl)-1,2,3,4-tetrahydro-isoquinoline-3-carboxamide] the IC50 was 160 nM. In the case of `CCOc1ccccc1[C@@H](C)N(Cc1ccc(C(=O)N[C@H]2C[C@@H](C(=O)N[C@@H]3CCCc4ccccc43)N(C(=O)[C@@H](NC(=O)[C@H](C)NC)C(C)(C)C)C2)cc1)C(=O)[C@@H]1Cc2ccccc2CN1C(=O)[C@@H](NC(=O)[C@H](C)NC)C(C)(C)C` [Example 29, (S)-2-((S)-3,3-Dimethyl-2-((S)-2-(methylamino)propanamido)butanoyl)-N-(4-(((3S,5S)-1-((S)-3,3-dimethyl-2-((S)-2-(methyl-amino)propanamido)butanoyl)-5-(((R)-1,2,3,4-tetra-hydronaphthalen-1-yl)carbamoyl)pyrrolidin-3-yl)carbamoyl)benzyl)-N-((R)-1-(2-ethoxyphenyl)ethyl)-1,2,3,4-tetrahydro-isoquinoline-3-carboxamide], the IC50 is reported as 160 nM. In the case of `CN[C@@H](C)C(=O)N[C@H](C(=O)N1Cc2ccccc2C[C@H]1CN(C(=O)c1ccc(C(=O)N[C@H]2C[C@@H](C(=O)N[C@@H]3CCCc4ccccc43)N(C(=O)[C@@H](NC(=O)[C@H](C)NC)C(C)(C)C)C2)cc1)[C@H](C)Cc1ccc2ccccc2c1)C(C)(C)C` [Example 30, N^1-(((S)-2-((S)-3,3-Dimethyl-2-((S)-2-(methylamino)propanamido)butanoyl)-1,2,3,4-tetrahydro-isoquinolin-3-yl)methyl)-N^4-((3S,5S)-1-((S)-3,3-dimethyl-2-((S)-2-(methylamino)propanamido)butanoyl)-5-(((R)-1,2,3,4-tetrahydro-naphthalen-1-yl)carbamoyl)pyrrolidin-3-yl)-N^1-((R)-1-(naphthalen-2-yl)propan-2-yl) terephthalamide], the IC50 is reported as 270 nM. With `CN[C@@H](C)C(=O)N[C@H](C(=O)N1Cc2ccccc2C[C@H]1CN(C(=O)c1ccc(C(=O)N[C@H]2C[C@@H](C(=O)N[C@@H]3CCCc4ccccc43)N(C(=O)[C@@H](NC(=O)[C@H](C)NC)C(C)(C)C)C2)cc1)[C@H](C)c1ccc2ccccc2c1)C(C)(C)C` [Example 31, N^1-(((S)-2-((S)-3,3-Dimethyl-2-((S)-2-(methylamino)propanamido)butanoyl)-1,2,3,4-tetrahydro-isoquinolin-3-yl)methyl)-N^4-((3S,5S)-1-((S)-3,3-dimethyl-2-((S)-2-(methyl-amino)propanamido)butanoyl)-5-(((R)-1,2,3,4-tetrahydro-naphthalen-1-yl)carbamoyl)pyrrolidin-3-yl)-N^1-((R)-1-(naphthalen-2-yl)ethyl) terephthalamide] the IC50 was 250 nM. `CN[C@@H](C)C(=O)N[C@H](C(=O)N1Cc2ccccc2C[C@H]1CN(CCc1cccc2ccccc12)C(=O)c1ccc(C(=O)N[C@H]2C[C@@H](C(=O)N[C@@H]3CCCc4ccccc43)N(C(=O)[C@@H](NC(=O)[C@H](C)NC)C(C)(C)C)C2)cc1)C(C)(C)C` [Example 33, N^1-(((S)-2-((S)-3,3-Dimethyl-2-((S)-2-(methylamino)propanamido)butanoyl)-1,2,3,4-tetrahydro-isoquinolin-3-yl)methyl)-N^4-((3S,5S)-1-((S)-3,3-dimethyl-2-((S)-2-(methylamino)propanamido)butanoyl)-5-(((R)-1,2,3,4-tetrahydro-naphthalen-1-yl)carbamoyl)pyrrolidin-3-yl)-N^1-(2-(naphthalen-1-yl)ethyl) terephthalamide] gave an IC50 of 120 nM. `CN[C@@H](C)C(=O)N[C@H](C(=O)N1Cc2ccccc2C[C@H]1CN(Cc1cccc2ccccc12)C(=O)c1ccc(C(=O)N[C@H]2C[C@@H](C(=O)N[C@@H]3CCCc4ccccc43)N(C(=O)[C@@H](NC(=O)[C@H](C)NC)C(C)(C)C)C2)cc1)C(C)(C)C` [Example 34, N^1-(((S)-2-((S)-3,3-Dimethyl-2-((S)-2-(methylamino)propanamido)butanoyl)-1,2,3,4-tetrahydro-isoquinolin-3-yl)methyl)-N^4-((3S,5S)-1-((S)-3,3-dimethyl-2-((S)-2-(methylamino)propanamido)butanoyl)-5-(((R)-1,2,3,4-tetrahydro-naphthalen-1-yl)carbamoyl)pyrrolidin-3-yl)-N^1-(naphthalen-1-ylmethyl) terephthalamide] showed an IC50 of 160 nM.
